Here are results for 15 compounds from US20080004276A1, “Method for treating non-hodgkin's lymphoma” (priority 2006, published 2008).

Each structure is given as a SMILES string. Some results are limits rather than exact numbers.

The subject of this test is Her2. The experiment in a line: IC50 range for inhibition of Her2 degradation (Table 8). The test is classed as cell-based. The conditions noted are these: Homo sapiens. On the procedure:
Human high-Her2 breast carcinoma BT474 (HTB-20), SK-BR-3 (HTB-30) and MCF-7 breast carcinoma (HTB-22) from American Type Culture Collection, VA, USA were grown in Dulbecco's modified Eagle's medium with 4 mM L-glutamine and antibiotics (100 IU/ml penicillin and 100 ug/ml streptomycine; GibcoBRL). To obtain exponential cell growth, cells were trypsinized, counted and seeded at a cell density of 0.5×10^6 cells/ml regularly, every 3 days. All experiments were performed on day 1 after cell passage. […]
After treatment with a compound of the invention, cells were washed twice with 1×PBS/1% FBS, and then stained with anti-Her2-FITC (#340553, BD) for 30 min at 4° C. Cells were then washed three times in FACS buffer before the fixation in 0.5 ml 1% paraformadehydrede. Data was acquired on a FACSCalibur system. Isotype-matched controls were used to establish the non-specific staining of samples and to set the fluorescent markers. A total 10,000 events were recorded from each sample. Data were analysed by using CellQuest software (BD Biosciences).

Usually IC50 stands for the concentration at which inhibition is half-maximal. A high value points to weaker potency in that assay.

`Oc1ccc(-c2nnc(S)n2-c2cccc(-c3ccccc3)c2)c(O)c1` [Compound 181, 3-(2,4-Dihydroxy-phenyl)-4-(biphenyl-3-yl)-5-mercapto-triazole] registered an IC50 of 10 to 100 µM.

Consider `Cc1ccc(CO)cc1-n1c(S)nnc1-c1ccc(O)cc1O` [Compound 182, 3-(2,4-Dihydroxy-phenyl)-4-(2-methyl-5-hydroxymethyl-phenyl)-5-mercapto-triazole], for which the IC50 lay in the range of 10 to 100 µM.

For the compound `Oc1cc(O)c(-c2nnc(S)n2-c2cccc3ccccc23)cc1O` [Compound 184, 3-(2,4,5-Trihydroxy-phenyl)-4-(naphthalene-1-yl)-5-mercapto-triazole], the IC50 is 3 to 10 µM.

For `CCc1cc(-c2nnc(S)n2-c2ccc3[nH]c(C)c(C)c3c2)c(O)cc1O` [Compound 185, 3-(2,4-Dihydroxy-5-ethyl-phenyl)-4-(2,3-dimethyl-indol-5-yl)-5-mercapto-triazole], the IC50 is less than 3 µM.

Turning to `CCc1cc(-c2nnc(S)n2-c2ccc(OC)c(C(C)(C)C)c2)c(O)cc1O` [Compound 186, 3-(2,4-Dihydroxy-5-ethyl-phenyl)-4-(3-t-butyl-4-methoxy-phenyl)-5-mercapto-triazole], the IC50 lay in the range of 10 to 100 µM.

`CCc1cc(-c2nnc(S)n2-c2ccc(OC)c3c2ccn3C(C)C)c(O)cc1O` [Compound 188, 3-(2,4-Dihydroxy-5-ethyl-phenyl)-4-(1-isopropyl-7-methoxy-indol-4-yl)-5-mercapto-[1,2,4]triazole] came in with an IC50 of less than 3 µM.

`Oc1cc(O)c(C2CC2)cc1-c1nnc(S)n1-c1cccc2ccccc12` [Compound 189, 3-(2,4-Dihydroxy-5-cyclopropyl-phenyl)-4-(naphthalene-1-yl)-5-mercapto-triazole] had an IC50 of less than 3 µM.

In turn, `CCc1cc(-c2nnc(S)n2-c2ccc(OC)c(N(CC)CC)c2)c(O)cc1O` [Compound 247, 4-(4-(3-(diethylamino)-4-methoxyphenyl)-5-mercapto-4H-1,2,4-triazol-3-yl)-6-ethylbenzene-1,3-diol] yielded an IC50 of less than 3 µM.

As to `CCCN(c1cc(-n2c(S)nnc2-c2cc(CC)c(O)cc2O)ccc1OC)C(C)C` [Compound 248, 4-(4-(3-(N-isopropyl-N-propylamino)-4-methoxyphenyl)-5-mercapto-4H-1,2,4-triazol-3-yl)-6-ethylbenzene-1,3-diol], the IC50 was less than 3 µM.

Consider `CCc1cc(-c2nnc(S)n2-c2ccc(OC)c(N(C)C(C)C)c2)c(O)cc1O` [Compound 249, 4-(4-(3-(N-isopropyl-N-methylamino)-4-methoxyphenyl)-5-mercapto-4H-1,2,4-triazol-3-yl)-6-ethylbenzene-1,3-diol], for which the IC50 was less than 3 µM.

Consider `CCc1cc(-c2nnc(S)n2-c2ccc(OC)c(N(C)CC)c2)c(O)cc1O` [Compound 250, 4-(4-(3-(N-ethyl-N-methylamino)-4-methoxyphenyl)-5-mercapto-4H-1,2,4-triazol-3-yl)-6-ethylbenzene-1,3-diol], for which the IC50 was less than 3 µM.

`CCc1cc(-c2nnc(S)n2-c2ccc(OC)c(N(C)C)c2)c(O)cc1O` [Compound 251, 4-(4-(3-(dimethylamino)-4-methoxyphenyl)-5-mercapto-4H-1,2,4-triazol-3-yl)-6-ethylbenzene-1,3-diol] registered an IC50 of less than 3 µM.

Take `CCc1cc(-c2nnc(S)n2-c2cccc(N(C)C)c2)c(O)cc1O` [Compound 252, 4-(4-(3-(dimethylamino)phenyl)-5-mercapto-4H-1,2,4-triazol-3-yl)-6-ethylbenzene-1,3-diol]: the IC50 is less than 3 µM.

For `CCc1cc(-c2nnc(S)n2-c2ccc(N(C)C)c(OC)c2)c(O)cc1O` [Compound 259, 4-(4-(4-(dimethylamino)-3-methoxyphenyl)-5-mercapto-4H-1,2,4-triazol-3-yl)-6-ethylbenzene-1,3-diol], the IC50 is less than 3 µM.

In turn, `CCc1cc(-c2n[nH]c(O)c2-c2cccc3ccccc23)c(O)cc1O` [Compound 348, 4-(naphthalen-1-yl)-3-(5-ethyl-2,4-dihydroxy-phenyl)-5-hydroxy-2H-pyrazole] gave an IC50 of 10 to 100 µM.
